Some results are limits rather than exact numbers.

Consider `COC1OCC[C@@H]1NC(=O)[C@H](Cc1ccccc1)NC(=O)CNC(=O)COc1ccc2c(c1)Nc1ccccc1S2` (stereo partly specified), for which the melting point (in general, the temperature of the solid-liquid transition) is 203 to 204 °C.

Compound `COc1ccc(C=Cc2ccccc2)c(-c2ccc(-c3cc(OC)ccc3C=Cc3ccccc3)n2-c2ccc(C)cc2)c1` gave a melting point of 303 to 305 °C.

Turning to `Cc1cccnc1C(=O)c1[nH]c2cc(Cl)ccc2c1N`, the melting point is 171 to 172 °C.

`CCCCC(Cc1ccc(OCCCNC(=O)c2ccc(-c3ccccn3)cc2)cc1)C(=O)O` (stereo unspecified): the melting point was 151 to 152 °C.

On to `COC(=O)C(C)Oc1ccc(Oc2ccc(C(F)(F)F)cc2)cc1` (stereo unspecified), for which the melting point is 142 °C.

On to `O=c1c(-c2ccccc2)c(Cn2ccnc2)oc2ccccc12`, for which the melting point lay within 168 to 171 °C.

For the compound `O=C1c2ccccc2C(=O)N1Cc1cc2ccccc2[nH]1`, the melting point was 215 to 220 °C.

With `CCCC(=O)c1cnc2c(COC(=O)c3ccc(OC)cc3)cccc2c1Nc1ccc(O)cc1C`, the melting point fell in the range of 171 to 175 °C.

Compound `COc1cc(NCCO)c([N+](=O)[O-])c(NCCO)c1` yielded a melting point of 150 °C.

As for `Nc1cnc2c(F)c(Cl)c(F)cc2c1`, the melting point was determined as 270 °C.

In turn, `CC(O)(c1ccc(Cl)cc1)C1CCNCC1` (stereo unspecified) returned a melting point of 178 to 180 °C.

In turn, `COc1ccc2c(=O)cc(-c3cc[nH]n3)oc2c1` showed a melting point of 170 to 171 °C.

The compound `CC(C)Oc1cc(COc2ccc(C(F)(F)F)cc2)cc(COc2cc(CCC(=O)O)n(-c3ccccc3)n2)c1` displayed a melting point of 55 to 58 °C.

Regarding `N#Cc1nc(-c2nn(-c3c(Cl)cc(C(F)(F)F)cc3Cl)nc2Cl)[nH]c1C#N`, the melting point was in the range of 206 to 208 °C.

The compound `CCCCN(CCCC)c1ccc2nc3c4ccccc4c(=Nc4ccncc4)cc-3oc2c1` displayed a melting point of 188 to 189 °C.

With `O=C(O)Cn1ncc2c(=O)n3c(nc21)SCC3`, the melting point was in the range of 212 to 214 °C.

For the compound `CN(C)NC(=O)C1(N2C(=O)c3cccc(Cl)c3C2=O)CCCCC1`, the melting point lay within 184 to 185 °C.

For `O=C(NC1CCC1)c1cc(Nc2nc(N3CCCC3c3ccccn3)nc3ccoc23)[nH]n1` (stereo unspecified), the melting point worked out at 250 °C.

As to `CC(=O)SCCC(=O)N1[C@@H](c2ccccc2O)SC[C@H]1C(=O)N(c1ccccc1)[C@@H](C)C(=O)O`, the melting point lay within 91 to 95 °C.

On to `COc1ccc2nc3cc(C(=O)O)ccn3c(=O)c2c1`, for which the melting point fell in the range of 323 to 327 °C.

`O=CN(O)C(CCCO)CS(=O)(=O)c1ccc(-c2ccc(F)cc2)cc1` (stereo unspecified) registered a melting point of 143 to 144 °C.

For `O=C1c2c(Br)cccc2-n2cnc(-c3noc(CCl)n3)c2[C@@H]2CCCN12`, the melting point fell in the range of 242 to 244 °C.

In turn, `O=C(NC1CCC(CCN2CCN(c3nccc4c3CCO4)CC2)CC1)c1ccc(N2CCS(=O)(=O)CC2)cc1` (stereo unspecified) displayed a melting point of 262 °C.

`CCCCc1nc2c(N)nc3c(c2n1CC(C)C)CCNC3` gave a melting point of 164 to 166 °C.

Turning to `COc1ccc(C2CNC(=O)C2)cc1C1CCCC1` (stereo unspecified), the melting point is 139 °C.

Take `CCOC(=O)C=CC(=O)Nc1ccc(Cl)cc1C(=O)c1ccccc1Cl`: the melting point lay within 113 to 114 °C.

Compound `CN1CCCCC1CCc1ccccc1NC(=O)c1ccoc1` (stereo unspecified) had a melting point of 114 to 116 °C.

In turn, `O=C1c2ccccc2C(=O)c2sc(-c3cc(Br)c(Br)o3)nc21` came in with a melting point above 260 °C.

`CCOc1ccccc1OC(c1ccccc1)C(O)CN` (stereo unspecified) came in with a melting point of 98.5 to 99.9 °C.

The compound `O=Cc1ccc(-c2ccccc2Cl)cc1` registered a melting point of 124 to 125 °C.

On to `O=P(O)(O)CCCCCCCCCCCCCCCCCCCCCCC(F)(F)C(F)(F)C(F)(F)C(F)(F)F`, for which the melting point fell in the range of 106 to 108 °C.

`C=C1c2ccccc2C=Cn2c1nnc2S(C)=O` (stereo unspecified) yielded a melting point of 140 to 142 °C.

`COc1ccc(CSc2nnc(-c3ccc4c(c3)CCO4)o2)cc1Cl` showed a melting point of 136 to 137 °C.

For `CCOC(=O)c1csc(-c2ccc3c(=O)n(CC(C)C)c(CNC(=O)OCC4c5ccccc5-c5ccccc54)c(-c4ccccc4)c3c2)n1`, the melting point was 151 to 152 °C.

In the case of `O=C(O)CN1C(=O)C=CC1=O`, the melting point stood at 110 °C.

In turn, `CC(C)(C)c1cc2c(c(C(C)(C)C)c1O)CCS2` showed a melting point of 82 °C.

`O=C1CCCCc2cc(Cl)c(Cl)cc21` displayed a melting point above 250 °C.

As to `O=C(O)c1cn(C2CC2)c2nc(N3Cc4ccc(CO)cc4C3)c(F)cc2c1=O`, the melting point is above 300 °C.

Compound `CN(C)C(=O)N1N=C2c3cc(F)ccc3OC[C@@H]2[C@@H]1c1ccccc1` (racemic) returned a melting point of 117 °C.

With `COc1c(N2CCC(n3cc(C)nn3)C2)c(F)c(N)c2c(=O)c(C(=O)O)cn(C3CC3)c12` (stereo unspecified), the melting point was 256 °C.

`CCOC(=O)/C(C)=C(/C)c1cn(C(c2ccccc2)(c2ccccc2)c2ccccc2)cn1` gave a melting point of 166 to 168 °C.

The compound `CCCc1c(OCCCS(=O)(=O)c2ccc(C(=O)CCC#N)cc2)ccc(C(C)=O)c1O` yielded a melting point of 143 to 144 °C.

Compound `OC(c1c(Br)ccc2c1OCO2)c1cccc2cnccc12` (stereo unspecified) had a melting point of 173 to 175 °C.

`COC(=O)c1ccc2cc(-c3ccccc3)[nH]c2c1` displayed a melting point of 208 to 210 °C.

On to `CCOC(=O)C1=C(N)NC(N)=C(C(=O)OCC)C1c1ccccc1C`, for which the melting point stood at 158 °C.

Consider `COc1cccc(C(C)N(C)CCCOc2ccc(S(=O)(=O)c3c(C(C)C)cn4ccccc34)cc2)c1` (stereo unspecified), for which the melting point lay within 111 to 113 °C.

The compound `O=C(Nc1cnc2c(c1)nc1n2CCC1)c1cc2cc(F)ccc2n1Cc1cccc(F)c1` showed a melting point of 227 to 229 °C.

Compound `CC(C)(C)OC(=O)N1CC(CCl)c2c1ccc1cc(C#N)ccc21` (stereo unspecified) gave a melting point of 171 to 172 °C.

In turn, `N#Cc1ccc(O)c(I)c1` yielded a melting point of 144 to 146 °C.

On to `C#Cc1ccc2c(c1)C(=O)N(c1ccc3c(c1)C=C3)C2=O`, for which the melting point is 191 to 192 °C.

Consider `COC(=O)C(Cc1ccc(OCCn2c(=O)oc3cc(C(O)c4ccccc4)ccc32)cc1)C(=O)OC` (stereo unspecified), for which the melting point was 84 to 87 °C.

Take `CC(=O)c1c(O)c(=O)[nH]c2cc(Cl)ccc2c1=O`: the melting point is 254 to 256 °C.

`O=[N+]([O-])c1ccc2nc(-c3ccc4c(c3)OCCO4)ncc2c1` showed a melting point of 263 to 265 °C.

`CN1C(c2ccc3ccccc3c2)CC(=O)CC1c1ccc2ccccc2c1` (stereo unspecified) yielded a melting point of 209 to 212 °C.

`CC(C)(C)OC(=O)NCCc1c[nH]c2ccc(C#N)cc12` showed a melting point of 129 to 132 °C.

In turn, `O=C(O)CCCCNS(=O)(=O)c1ccc(N2CCCCCCC2)cc1` showed a melting point of 149 to 150 °C.

Turning to `CCCOc1ccc(Cl)c2c(=O)c3ccccc3sc12`, the melting point lay within 102 to 103 °C.

The compound `CN1CCCN(C(=O)Nc2ccccc2Cc2ncc[nH]2)CC1` displayed a melting point of 139 to 143 °C.

`CCCCCc1cc(O)c2c3c(c(=O)oc2c1)SC(C)(C)C3` had a melting point of 203 to 206 °C.

`O=c1cc(-c2ccc(OCc3ccccc3)c(OCc3ccccc3)c2)oc2cc(OCCBr)ccc12` came in with a melting point of 167 to 168 °C.

As for `CN(C)Cc1ccc(CSCCNC(=C[N+](=O)[O-])NCc2ccc3c(c2)OCO3)o1`, the melting point is 98 to 120 °C.

Regarding `CC1CCN(C2(c3ccc(C#CC(=O)Nc4ccc(-c5ccc(Cl)cc5)cc4)cc3)CC2)CC1`, the melting point lay within 128 to 129 °C.

Consider `CCOC(=S)c1[nH]c(C)nc1C(C)(C)O`, for which the melting point is 128 to 129 °C.

With `O=C1OCCN1CCCn1ccnc1[N+](=O)[O-]`, the melting point was 89 to 91 °C.

The compound `COc1ccc(CCn2cnc3ccc(-c4cccc(C(=O)NCCN5CCCC5)c4)nc32)cc1OC` returned a melting point of 106 to 107 °C.

In the case of `CNC(=O)NN=C(c1ccc([N+](=O)[O-])cc1)c1cc2c(cc1C[C@H](C)O)OCO2`, the melting point came out at 238 °C.

Compound `C=CCC(C(N)=O)C(N)=O` had a melting point of 168 to 169 °C.

Take `CCOC(=O)c1oc2ccccc2c1N=CN(C)C`: the melting point was in the range of 89 to 90 °C.

In the case of `N#Cc1cccc(-c2nc(-c3ccc(C(=O)O)cc3)cc3cccnc23)c1`, the melting point was above 300 °C.

`O=C(c1ccccc1F)c1cc(Cl)ccc1C=CCN1C(=O)c2ccccc2C1=O` yielded a melting point of 117 °C.

On to `Cc1ccc(NC(=O)c2cnn3c(C(F)F)cc(-c4ccc(C(F)(F)F)cc4)nc23)cc1S(N)(=O)=O`, for which the melting point is 249 °C.

`CC(C)CC(NC(=O)C(Cc1c[nH]c2ccccc12)NC(=O)OC(C)(C)C)C(=O)NCCC(=O)CCl` (stereo unspecified) came in with a melting point of 79 to 81 °C.

`O=C1SC[C@@H](CO)N1Cc1ccccc1` had a melting point of 87 to 90 °C.

For `COC(=O)c1cn(Cc2ccc(OCc3nc(-c4ccccc4)oc3C)cc2)cc1-c1ccccc1`, the melting point lay within 115 to 116 °C.

`O=C(O)[C@@H](Cl)[C@H](O)c1ccccc1`: the melting point fell in the range of 98 to 100 °C.

In turn, `CCNS(=O)(=O)c1nc2cc(C(=O)c3ccccc3)ccc2[nH]1` showed a melting point of 250 to 253 °C.

Turning to `COc1ccc(C(=O)Oc2cc(OCCO/N=C/c3ccc(C(C)(C)C)cc3)ccc2C(=O)O)cc1`, the melting point is 116 to 118 °C.

Compound `COc1ccc(Nc2nc(Cl)cc(NC3CCCCCC3)n2)cc1Cl` returned a melting point of 74 to 76 °C.

For `Oc1ccc2c(c1)OCC(N1CCC(O)(c3ccc(F)cc3)CC1)C2O` (stereo unspecified), the melting point fell in the range of 159 to 160 °C.

`Cc1scc2c1N(C(=O)NCCN1CCC(CCCCN3CCCCC3)CC1)c1ccccc1NC2=O` showed a melting point of 186 to 187 °C.

As for `CCOC(=O)c1cn(C2CC2)c2nc(Cl)c(F)cc2c1=O`, the melting point is 176 to 178 °C.

As to `Cc1nc(C)c(Cl)c(NCc2cc(OCC(F)(F)F)c(OCc3ccccc3)c(Br)n2)n1`, the melting point lay within 97 to 98 °C.

In turn, `CC(=O)Nc1cccc(-c2c(C)c(NC(=O)CC(C)(C)C)c(C)c3c2OCC3c2ccc(C(C)C)cc2)n1` (stereo unspecified) displayed a melting point of 205 to 208 °C.

In turn, `COC(=O)/C(N)=C/C(=O)/C=C/c1ccc(Cl)cc1` yielded a melting point of 112 to 113 °C.

For `O=C(Nc1ccc(Br)c(C(F)(F)F)c1)c1ccccc1[N+](=O)[O-]`, the melting point lay within 157 to 158 °C.

As for `NS(=O)(=O)c1cc2cc3c(cc2[nH]1)OCO3`, the melting point fell in the range of 234 to 237 °C.

The values are drawn from a melting point compilation (Tetko et al.; mined from patent text by program, amines drawn as free bases though some values may be those of a salt).
